Test results reported in ChEMBL document CHEMBL1201862, “PubChem BioAssay data set” (2004).
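A five-concentration, 48-hour dose response in 96-well plates underlies each endpoint, interpolated linearly between surrounding concentrations. GI50 = concentration required for 50% inhibition of growth.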 Calls of active or inactive are those of the source. Cut-off read from the data, not from the text of the source: active = GI50 up to about 1.1 µM and inactive = higher.

Assays:
Assay in all cases: DTP human tumour cell line panel, 48 h
CCRF-CEM = tested on: CCRF-CEM
ACHN = tested on: ACHN
BT-549 = tested on: BT-549
NCI/ADR-RES = tested on: NCI/ADR-RES
SW-620 = tested on: SW-620
DU-145 = tested on: DU-145
OVCAR-4 = tested on: OVCAR-4
OVCAR-5 = tested on: OVCAR-5
HCT-116 = tested on: HCT-116
PC-3 = tested on: PC-3
LOX IMVI = tested on: LOX IMVI
HL-60 = tested on: HL-60
SK-MEL-5 = tested on: SK-MEL-5
Malme-3M = tested on: Malme-3M
TK-10 = tested on: TK-10
OVCAR-8 = tested on: OVCAR-8
MOLT-4 = tested on: MOLT-4
NCI-H226 = tested on: NCI-H226
A498 = tested on: A498

Cn1c2ccccc2c(=NNc2ccc(S(=O)(=O)N=C(N)N)cc2)c2ccccc21
GI50 (CCRF-CEM): 6.68 µM (inactive) | GI50 (ACHN): 4.55 µM (inactive) | GI50 (BT-549): 9.42 µM (inactive) | GI50 (NCI/ADR-RES): 21.8 µM (inactive) | GI50 (SW-620): 7.55 µM (inactive) | GI50 (DU-145): 11.2 µM (inactive) | GI50 (OVCAR-4): 3.37 µM (inactive) | GI50 (OVCAR-5): 6.24 µM (inactive) | GI50 (HCT-116): 5.65 µM (inactive) | GI50 (PC-3): 7.94 µM (inactive) | GI50 (LOX IMVI): 5.02 µM (inactive) | GI50 (HL-60): 14.1 µM (inactive) | GI50 (SK-MEL-5): 5.41 µM (inactive) | GI50 (Malme-3M): 8.26 µM (inactive) | GI50 (TK-10): 7.6 µM (inactive) | GI50 (OVCAR-8): 6.03 µM (inactive) | GI50 (MOLT-4): 3.31 µM (inactive) | GI50 (NCI-H226): 4.49 µM (inactive)

c1ccc2c(c1)cc1ccc3cccc4ccc2c1c34
GI50 (CCRF-CEM): > 100 µM (inactive) | GI50 (ACHN): > 100 µM (inactive) | GI50 (BT-549): > 100 µM (inactive) | GI50 (NCI/ADR-RES): > 100 µM (inactive) | GI50 (SW-620): > 100 µM (inactive) | GI50 (DU-145): > 100 µM (inactive) | GI50 (HCT-116): > 100 µM (inactive) | GI50 (PC-3): > 100 µM (inactive) | GI50 (LOX IMVI): > 100 µM (inactive) | GI50 (HL-60): > 100 µM (inactive) | GI50 (SK-MEL-5): > 100 µM (inactive) | GI50 (TK-10): > 100 µM (inactive) | GI50 (OVCAR-8): > 100 µM (inactive) | GI50 (MOLT-4): > 100 µM (inactive) | GI50 (NCI-H226): > 100 µM (inactive)

N/C(=N\NC(=O)c1nc2ccccc2s1)c1ccccn1
GI50 (CCRF-CEM): 2.42 µM (inactive) | GI50 (ACHN): 2.87 µM (inactive) | GI50 (BT-549): 31.3 µM (inactive) | GI50 (NCI/ADR-RES): 1.11 µM (active) | GI50 (SW-620): 6.82 µM (inactive) | GI50 (DU-145): 4.27 µM (inactive) | GI50 (OVCAR-4): 0.706 µM (active) | GI50 (OVCAR-5): 5.89 µM (inactive) | GI50 (HCT-116): 3.28 µM (inactive) | GI50 (PC-3): 9.31 µM (inactive) | GI50 (LOX IMVI): 4.93 µM (inactive) | GI50 (HL-60): 0.452 µM (active) | GI50 (A498): 8.34 µM (inactive) | GI50 (SK-MEL-5): 4.24 µM (inactive) | GI50 (Malme-3M): 30 µM (inactive) | GI50 (TK-10): 7.8 µM (inactive) | GI50 (OVCAR-8): 5.33 µM (inactive) | GI50 (MOLT-4): 1.29 µM (inactive)

O=C(NC(=O)c1ccccc1)OC(c1ccccc1)C1CO1 (centres undefined)
GI50 (CCRF-CEM): > 100 µM (inactive) | GI50 (ACHN): > 100 µM (inactive) | GI50 (BT-549): > 100 µM (inactive) | GI50 (NCI/ADR-RES): > 100 µM (inactive) | GI50 (SW-620): > 100 µM (inactive) | GI50 (DU-145): > 100 µM (inactive) | GI50 (OVCAR-4): > 100 µM (inactive) | GI50 (OVCAR-5): > 100 µM (inactive) | GI50 (HCT-116): > 100 µM (inactive) | GI50 (PC-3): > 100 µM (inactive) | GI50 (LOX IMVI): > 100 µM (inactive) | GI50 (HL-60): > 100 µM (inactive) | GI50 (SK-MEL-5): > 100 µM (inactive) | GI50 (Malme-3M): > 100 µM (inactive) | GI50 (TK-10): > 100 µM (inactive) | GI50 (OVCAR-8): > 100 µM (inactive) | GI50 (MOLT-4): > 100 µM (inactive) | GI50 (NCI-H226): > 100 µM (inactive)
